Assay results taken from article PMC9098913, “In vitro reconstitution of Escherichia coli divisome activation” (Nature Communications, 2022).
Where two headings read alike, the source gives them in different places.

B1: FtsA R286W (protein)
chain: MIKATDRKLVVGLEIGTAKVAALVGEVLPDGMVNIIGVGSCPSRGMDKGGVNDLESVVKCVQRAIDQAELMADCQISSVYLALSGKHISCQNEIGMVPISEEEVTQEDVENVVHTAKSVRVRDEHRVLHVIPQEYAIDYQEGIKNPVGLSGVRMQAKVHLITCHNDMAKNIVKAVERCGLKVDQLIFAGLASSYSVLTEDERELGVCVVDIGGGTMDIAVYTGGALRHTKVIPYAGNVVTSDIAYAFGTPPSDAEAIKVRHGCALGSIVGKDESVEVPSVGGRPPWSLQRQTLAEVIEPRYTELLNLVNEEILQLQEKLRQQGVKHHLAAGIVLTGGAAQIEGLAACAQRVFHTQVRIGAPLNITGLTDYAQEPYYSTAVGLLHYGKESHLNGEAEVEKRVTASVGSWIKRLNSWLRKEF
modifications: Cy3 or Cy5 at the N-terminus in the labelled form (labelled CLEPTGG peptide conjugated to the 5xGly tag by sortagging); unlabelled protein also used; left off: TwinStrep-SUMO, N-terminal, cleaved | 5x

How the values were obtained:
[1] = Fig. S4b, 0.10 % Tris NTA
Procedure: To study colocalization of His-tagged variants of FtsA, 0.5–1 µM of Cy5 labelled His-tagged FtsAs were added to the chamber, incubated for 20 min and washed 6x with reaction buffer. […] To control the density of membrane-bound FtsA, SUVs without and with Tris-NTA lipids were mixed to obtain the respective Tris-NTA concentrations. To perform FRET/FRAP experiments, equimolar concentrations of Cy3 and Cy5 labelled His-tagged FtsAs (total 0.5–1 µM) or His-SUMO-Cys were added to a chamber and treated as above. […] FRAP experiments were performed as described before.
To calculate the theoretical spacing of His-tagged FtsAs or the His-SUMO control, we consulted a previous QCM-D study using Tris-NTA lipids and a His-tagged version of ZipA[50]. The spacing in nm^2 was calculated by y=2/3⋅1/6.022⋅x⋅0.001 , where x is the protein density in pMol cm^−2 which can be estimated from the Tris-NTA lipid density.
To estimate the theoretical maximum packing of membranes containing Tris-NTA lipids, we can assume the area of a single FtsA molecule to be ~30 nm^2 and the area of a single lipid molecule to be 0.5 nm^2. […] For the FRET control experiments with His-SUMO-Cys, we estimate a four times smaller area for His6-SUMO Cys (~7 nm^2) and thus increase the maximum Tris-NTA density to 5%.

[2] = Nucleotide effect on membrane binding of FtsA WT (normalized intensity); details: Fig. S3m
[3] = Single-molecule membrane residence time of FtsA; format: binding; set-up: Single Molecule Lifetime: unit not given here; details: for Single Molecule Lifetime, mean: mean of Exp. 1-3, n = 3, Fig. 3b; for mean residence time on the membrane: single-particle tracking, n = 3
Procedure: First, we studied the behaviour of single FtsA proteins on the membrane surface.
After 5 min of incubation, single molecule time lapses were acquired every 125, 250, 500, and 1000 and 2000 ms, with an exposure time of 50 ms. Subsequently, the bulk concentration of FtsA was increased to 0.2/0.4/0.8 µM and time lapses were repeated as described above.
Single molecules of FtsA or FtsZ were tracked using the TrackMate plugin from ImageJ[43]. To obtain the residence time of FtsZ and FtsA, we performed a residence time analysis as described before[40],[47]. Shortly, single molecules were imaged at different acquisition rates (0.1–2 s) and the lifetime of the molecules was extracted from each data set. To account for photobleaching effect, the obtained lifetimes were plotted against the acquisition rate. […] Furthermore, we extracted the diffusion coefficient of FtsA single molecules at increasing concentrations. For this, we filtered the obtained data, by considering only trajectories which are present on the membrane for more than 0.4 s. […] Subsequently, the diffusion coefficient of FtsA molecules was estimated by fitting an MSD curve to each individual trajectory.

Molecule | Single Molecule Lifetime ([3]; 0.1 µM FtsA, Exp. 1) | Single Molecule Lifetime ([3]; 0.1µM FtsA, Exp. 2) | Single Molecule Lifetime ([3]; 0.1 µM FtsA, Exp. 3) | Single Molecule Lifetime, mean ([3]; 0.1 µM FtsA) | Single Molecule Lifetime ([3]; 0.2 µM FtsA, Exp. 1) | Single Molecule Lifetime ([3]; 0.2µM FtsA, Exp. 2) | Single Molecule Lifetime ([3]; 0.2 µM FtsA, Exp. 3) | Single Molecule Lifetime, mean ([3]; 0.2 µM FtsA) | Single Molecule Lifetime ([3]; 0.4 µM FtsA, Exp. 1) | Single Molecule Lifetime ([3]; 0.4µM FtsA, Exp. 2) | Single Molecule Lifetime ([3]; 0.4 µM FtsA, Exp. 3) | Single Molecule Lifetime, mean ([3]; 0.4 µM FtsA) | Single Molecule Lifetime ([3]; 0.8 µM FtsA, Exp. 1) | Single Molecule Lifetime ([3]; 0.8µM FtsA, Exp. 2) | Single Molecule Lifetime ([3]; 0.8 µM FtsA, Exp. 3) | Single Molecule Lifetime, mean ([3]; 0.8 µM FtsA) | other results
FtsA-His6: FtsA WT (1-405) with amphipathic helix replaced by C-terminal His-tag |  |  |  |  |  |  |  |  |  |  |  |  |  |  |  |  | FtsA His6 intensity on Tris NTA SLBs ([1]; replicate 1): 1571.82 a.u.; FtsA His6 intensity on Tris NTA SLBs ([1]; replicate 2): 1134.07 a.u.; FtsA His6 intensity on Tris NTA SLBs ([1]; replicate 3): 932.94 a.u.
FtsA WT: wild-type E. coli actin-homologue FtsA, membrane anchor of FtsZ | 15.60 | 17.80 | 24.80 | 19.40 | 13.20 | 21.50 | 28.80 | 21.17 | 28.70 | 24.00 | 26.30 | 26.33 | 37.60 | 32.60 | 35.20 | 35.13 | Normalized intensity ([2]; AMP PNP, 0.10 µM FtsA, replicate 1): 0.07 a.u.; Normalized intensity ([2]; AMP PNP, 0.10 µM FtsA, replicate 2): 0.13 a.u.; Normalized intensity ([2]; AMPPNP, 0.20 µM FtsA, summary value): 0.62 a.u.; Normalized intensity ([2]; AMPPNP, 0.40 µM FtsA, summary value): 0.75 a.u.; Normalized intensity ([2]; AMPPNP, 0.80 µM FtsA, summary value): 1.00 a.u.; Normalized intensity ([2]; ATP, 0.10 µM FtsA, replicate 1): 0.20 a.u.; Normalized intensity ([2]; ATP, 0.10 µM FtsA, replicate 2): 0.48 a.u.; Normalized intensity ([2]; ATP, 0.10 µM FtsA, summary value): 0.37 a.u.; Normalized intensity ([2]; ATP, 0.20 µM FtsA, summary value): 0.67 a.u.; Normalized intensity ([2]; ATP, 0.40 µM FtsA, summary value): 0.82 a.u.; Normalized intensity ([2]; ATP, 0.80 µM FtsA, summary value): 0.95 a.u.; Normalized intensity ([2]; ATPgS, 0.20 µM FtsA, summary value): 0.20 a.u.; Normalized intensity ([2]; ATPgS, 0.40 µM FtsA, summary value): 0.21 a.u.; Normalized intensity ([2]; ATPgS, 0.80 µM FtsA, summary value): 0.65 a.u.; mean residence time on the membrane ([3]; 0.1 µM FtsA): 19.4 ± 3.9 s; mean residence time on the membrane ([3]; 0.8 µM FtsA): 35.1 ± 2.0 s
B1 | 1.99 | 2.89 | 3.02 | 2.63 | 3.32 | 7.68 | 10.90 | 7.30 | 8.16 | 11.60 | 5.33 | 8.36 | 15.60 | 10.90 | 15.80 | 14.10 | 
